# Measured values: patent publication US12534450B2, “Methods and compositions for targeting PD-L1” (Aligos Therapeutics, Inc., priority 2021, dated 2026)
# Biological target: PD-1/PD-L1 PPI (Homo sapiens, UniProt Q9NZQ7)
# Test: PDL1/PD1 Binding Assay
# Details: PDL1-6×His 0.3 nM, PD1-Fc-Avi-Biotin 2.5 nM, Acceptor/Donor beads, Envision reader
# Method: Compounds to be tested were serially diluted in DMSO, and further diluted in assay buffer (25 mM Hepes pH 7.4, 150 mM NaCl, 0.005% Tween 20, BSA 0.01%). Diluted compounds were added to the wells with final concentration of DMSO at 1%. PDL1-6×His protein was added to the wells, mixed well with compound. The plates were incubated for 30 min at room temperature. PD1-Fc-Avi-Biotin protein was added to the wells. Final concentration of PDL1 and PD1 protein is 0.3 nM and 2.5 nM, respectively. After a binding time of 30 min at room temperature, Anti-6×His Acceptor beads (final concentration 20 ug/ml) were added to the wells, and the incubation continued for 1 h. Streptavidin Donor beads (final concentration 20 ug/mL) were added at reduced light. The plates were sealed with foil and incubated in the dark for additional 1 h or overnight before reading on an Envision reader. The IC50 values were determined by fitting the curves using a four-parameter equation in Graphpad Prism 8.
# Chain of PD-1/PD-L1 PPI (Q9NZQ7 19-238 limits assumed): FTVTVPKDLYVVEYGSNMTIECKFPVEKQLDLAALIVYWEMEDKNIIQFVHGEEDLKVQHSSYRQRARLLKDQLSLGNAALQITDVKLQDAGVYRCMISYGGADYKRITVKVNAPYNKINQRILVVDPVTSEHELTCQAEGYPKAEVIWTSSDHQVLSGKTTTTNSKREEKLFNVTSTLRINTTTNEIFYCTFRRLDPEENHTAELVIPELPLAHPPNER
row,SMILES,IC50 [nM]
1,"COc1nc(-c2cccc(-c3cccc(NC(=O)c4cn(C)c(=O)n(C)c4=O)c3C)c2Cl)cc2c1C(NC[C@@H]1CCC(=O)N1)C(O)C2 (single isomer, unassigned) [Compound A-127]",≤ 10
2,"COc1nc(-c2cccc(-c3cccc(NC(=O)c4cn(C)c(=O)n(C)c4=O)c3C)c2Cl)cc2c1C(NC[C@@H]1CCC(=O)N1)C(O)C2 (single isomer, unassigned) [Compound A-128]",≤ 10
3,"COc1nc(-c2cccc(-c3cccc(NC(=O)c4cn(C)c(=O)n(C)c4=O)c3Cl)c2Cl)cc2c1[C@@H](N1CC3(CNC(=O)C3)C1)CC2 (single isomer, unassigned) [Compound A-129]",≤ 10
4,"COc1nc(-c2cccc(-c3cccc(NC(=O)c4cn(C)c(=O)n(C)c4=O)c3Cl)c2Cl)cc2c1C(N1CC3(CNC(=O)C3)C1)CC2 (single isomer, unassigned) [Compound A-130]",≤ 10
5,"COc1nc(-c2cccc(-c3cccc(NC(=O)c4cn(C)c(=O)n(C)c4=O)c3C)c2Cl)cc2c1[C@@H](N1CC3(CNC(=O)C3)C1)CC2 (single isomer, unassigned) [Compound A-131]",≤ 10
6,"COc1nc(-c2cccc(-c3cccc(NC(=O)c4cn(C)c(=O)n(C)c4=O)c3C)c2Cl)cc2c1[C@@H](N1CC3(CNC(=O)C3)C1)CC2 (single isomer, unassigned) [Compound A-132]",≤ 10
7,"COc1nc(-c2cccc(-c3cccc(NC(=O)c4cn(C)c(=O)n(C)c4=O)c3Cl)c2Cl)cc2c1[C@@H](N1CC3(COCC(=O)N3)C1)CC2 (single isomer, unassigned) [Compound A-133]",10 to 100
8,"COc1nc(-c2cccc(-c3cccc(NC(=O)c4cn(C)c(=O)n(C)c4=O)c3Cl)c2Cl)cc2c1[C@H](N1CC3(COCC(=O)N3)C1)CC2 (single isomer, unassigned) [Compound A-134]",≤ 10
9,"COc1nc(-c2cccc(-c3cccc(NC(=O)c4cn(C)c(=O)n(C)c4=O)c3Cl)c2Cl)cc2c1[C@@H](NC[C@@H]1CNC(=O)C1)CC2 (single isomer, unassigned) [Compound A-135]",≤ 10
10,"COc1nc(-c2cccc(-c3cccc(NC(=O)c4cn(C)c(=O)n(C)c4=O)c3Cl)c2Cl)cc2c1[C@H](NC[C@@H]1CNC(=O)C1)CC2 (single isomer, unassigned) [Compound A-136]",≤ 10
11,"COc1nc(-c2cccc(-c3cccc(NC(=O)c4cn(C)c(=O)n(C)c4=O)c3C)c2Cl)cc2c1[C@@H](NC[C@@H]1CNC(=O)C1)CC2 (single isomer, unassigned) [Compound A-137]",≤ 10
12,"COc1nc(-c2cccc(-c3cccc(NC(=O)c4ccnn(C)c4=O)c3Cl)c2Cl)cc2c1C(N1CC(C(=O)O)C1)CC2 (single isomer, unassigned) [Compound J-1]",≤ 10
13,"COc1nc(-c2cccc(-c3cccc(NC(=O)c4ccnn(C)c4=O)c3C)c2Cl)cc2c1[C@@H](N1CC(C(=O)O)C1)CC2 (single isomer, unassigned) [Compound J-2]",≤ 10
14,"COc1nc(-c2cccc(-c3cccc(NC(=O)c4cn(C)c(=O)n(C)c4=O)c3Cl)c2Cl)cc2c1[C@@H](N1CC(C(=O)O)C1)CC2 (single isomer, unassigned) [Compound J-3]",≤ 10
15,"COc1nc(-c2cccc(-c3cccc(NC(=O)c4cn(C)c(=O)n(C)c4=O)c3Cl)c2Cl)cc2c1[C@H](N1CC(C(=O)O)C1)CC2 (single isomer, unassigned) [Compound J-4]",≤ 10
16,"COc1nc(-c2cccc(-c3cccc(NC(=O)c4cn(C)c(=O)n(C)c4=O)c3C)c2Cl)cc2c1C(NC[C@@H]1CCC(=O)N1)C(F)C2 (single isomer, unassigned) [Compound K-1a]",≤ 10
17,"COc1nc(-c2cccc(-c3cccc(NC(=O)c4cn(C)c(=O)n(C)c4=O)c3C)c2Cl)cc2c1C(NC[C@@H]1CCC(=O)N1)C(F)C2 (single isomer, unassigned) [Compound K-1b]",≤ 10
18,COc1nc(-c2cccc(-c3cccc(NC(=O)c4cn(C)c(=O)n(C)c4=O)c3C)c2Cl)cc2c1[C@@H](NC[C@@H]1CCC(=O)N1)CC2 [Compound A-2],≤ 10

# System: PD-1/PD-L1 interaction
# Test: PD-1/PD-L1 NFAT Reporter Assay (co-culture of Jurkat T cells overexpressing PD-1 and PD-L1 expressing CHO cells)
# Format: cell-based
# Details: Homo sapiens, Jurkat, 6 h, co-culture 6 hrs at 37° C., NFAT-mediated luciferase activity
# Method: Blocking the PD-1/PD-L1 interaction will release the inhibitory signal and results in TCR signaling and NFAT-mediated luciferase activity.
# CHO cells expressing surface-bound anti-CD3 antibodies and PD-L1 were first seeded overnight and treated with the compounds. Jurkat cells overexpressing PD-1 and a luciferase construct under NFAT promoter were then immediately seeded on the monolayer of CHO cells. The co-culture was then incubated for 6 hrs at 37° C. Luciferase activity was assessed by adding the ONE-Glo reagent and measuring luminescence with a plate reader. EC50 values were determined from the fit of the dose-response curves.
row,SMILES,EC50 [nM]
1,"COc1nc(-c2cccc(-c3cccc(NC(=O)c4cn(C)c(=O)n(C)c4=O)c3Cl)c2Cl)cc2c1[C@@H](N1CC3(CNC(=O)C3)C1)CC2 (single isomer, unassigned) [Compound A-129]",≤ 10
2,"COc1nc(-c2cccc(-c3cccc(NC(=O)c4cn(C)c(=O)n(C)c4=O)c3Cl)c2Cl)cc2c1C(N1CC3(CNC(=O)C3)C1)CC2 (single isomer, unassigned) [Compound A-130]",10 to 100
3,"COc1nc(-c2cccc(-c3cccc(NC(=O)c4cn(C)c(=O)n(C)c4=O)c3Cl)c2Cl)cc2c1[C@@H](N1CC3(COCC(=O)N3)C1)CC2 (single isomer, unassigned) [Compound A-133]",100 to 1000
4,"COc1nc(-c2cccc(-c3cccc(NC(=O)c4cn(C)c(=O)n(C)c4=O)c3Cl)c2Cl)cc2c1[C@H](N1CC3(COCC(=O)N3)C1)CC2 (single isomer, unassigned) [Compound A-134]",≤ 10
5,"COc1nc(-c2cccc(-c3cccc(NC(=O)c4cn(C)c(=O)n(C)c4=O)c3Cl)c2Cl)cc2c1[C@@H](NC[C@@H]1CNC(=O)C1)CC2 (single isomer, unassigned) [Compound A-135]",100 to 1000
6,"COc1nc(-c2cccc(-c3cccc(NC(=O)c4cn(C)c(=O)n(C)c4=O)c3Cl)c2Cl)cc2c1[C@H](NC[C@@H]1CNC(=O)C1)CC2 (single isomer, unassigned) [Compound A-136]",≤ 10
7,"COc1nc(-c2cccc(-c3cccc(NC(=O)c4cn(C)c(=O)n(C)c4=O)c3C)c2Cl)cc2c1[C@@H](NC[C@@H]1CNC(=O)C1)CC2 (single isomer, unassigned) [Compound A-137]",1000 to 10000
8,"COc1nc(-c2cccc(-c3cccc(NC(=O)c4ccnn(C)c4=O)c3Cl)c2Cl)cc2c1C(N1CC(C(=O)O)C1)CC2 (single isomer, unassigned) [Compound J-1]",≤ 10
9,"COc1nc(-c2cccc(-c3cccc(NC(=O)c4ccnn(C)c4=O)c3C)c2Cl)cc2c1[C@@H](N1CC(C(=O)O)C1)CC2 (single isomer, unassigned) [Compound J-2]",≤ 10
10,"COc1nc(-c2cccc(-c3cccc(NC(=O)c4cn(C)c(=O)n(C)c4=O)c3Cl)c2Cl)cc2c1[C@@H](N1CC(C(=O)O)C1)CC2 (single isomer, unassigned) [Compound J-3]",≤ 10
11,"COc1nc(-c2cccc(-c3cccc(NC(=O)c4cn(C)c(=O)n(C)c4=O)c3Cl)c2Cl)cc2c1[C@H](N1CC(C(=O)O)C1)CC2 (single isomer, unassigned) [Compound J-4]",100 to 1000
12,COc1nc(-c2cccc(-c3cccc(NC(=O)c4cn(C)c(=O)n(C)c4=O)c3C)c2Cl)cc2c1[C@@H](NC[C@@H]1CCC(=O)N1)CC2 [Compound A-2],≤ 10

# Same assay, conditions: co-culture 6 hrs at 37° C., NFAT-mediated luciferase activity
row,SMILES,EC50 [nM]
1,"COc1nc(-c2cccc(-c3cccc(NC(=O)c4cn(C)c(=O)n(C)c4=O)c3C)c2Cl)cc2c1C(NC[C@@H]1CCC(=O)N1)C(O)C2 (single isomer, unassigned) [Compound A-127]",100 to 1000
2,"COc1nc(-c2cccc(-c3cccc(NC(=O)c4cn(C)c(=O)n(C)c4=O)c3C)c2Cl)cc2c1C(NC[C@@H]1CCC(=O)N1)C(O)C2 (single isomer, unassigned) [Compound A-128]",100 to 1000
3,"COc1nc(-c2cccc(-c3cccc(NC(=O)c4cn(C)c(=O)n(C)c4=O)c3C)c2Cl)cc2c1[C@@H](N1CC3(CNC(=O)C3)C1)CC2 (single isomer, unassigned) [Compound A-131]",≤ 10
4,"COc1nc(-c2cccc(-c3cccc(NC(=O)c4cn(C)c(=O)n(C)c4=O)c3C)c2Cl)cc2c1[C@@H](N1CC3(CNC(=O)C3)C1)CC2 (single isomer, unassigned) [Compound A-132]",100 to 1000
5,"COc1nc(-c2cccc(-c3cccc(NC(=O)c4cn(C)c(=O)n(C)c4=O)c3C)c2Cl)cc2c1C(NC[C@@H]1CCC(=O)N1)C(F)C2 (single isomer, unassigned) [Compound K-1a]",10 to 100
6,"COc1nc(-c2cccc(-c3cccc(NC(=O)c4cn(C)c(=O)n(C)c4=O)c3C)c2Cl)cc2c1C(NC[C@@H]1CCC(=O)N1)C(F)C2 (single isomer, unassigned) [Compound K-1b]",100 to 1000
